Patent US5605700A (priority 1992, dated 1997)
“Also recorded” adds a separate entry of the source.

Legend:
[1] = Tissue distribution of toremifene and metabolites after 5 days IP vs. topical toremifene (HPLC), mice with MDA A-1 tumors; conditions: for concentration at 2 h: mouse
Description: Sixteen female athymic nude mice were injected with a 20-gauge needle subcutaneously with 5×10^6 MDA A-1 cells in the left scapular area. The tumors were allowed to grow for three weeks prior to treatment.
Each of the three mice were injected IP using an 18 gauge needle with 50 μl, delivering 1 mg/day for five days. […] All mice were sacrificed on the fifth day of treatment two hours after the final dose. Blood specimens were collected by capillary pipette after disruption of axillary vessels and placed into heparinized centrifuge tubes. The brains, livers, and uterus were removed surgically and placed in separate tubes.
All blood samples were centrifuged at 1,000 g. The plasma was collected, measured for volume, and placed in clean extraction tubes. All remaining tissue samples were weighed, placed in extraction tubes, and spiked with an internal standard, nafoxidine. The tissues were thoroughly homogenized before the addition of 6 ml extraction fluid. Samples were collected and dried as described below. Before injection onto the HPLC column, each sample was reconstituted with 200 μl methanol. All samples were placed in a quartz cuvette for UV activation. The brain samples required filtration with disposable syringe filters.

MCF-7 cells = assay: Prevention of breast cancer (MCF-7) tumor growth by topical administration in the mouse; assay type: in vivo; conditions: topical 500 μg, 15 days
Description: In this study 12 mice were transplanted with MCF-7 cells and were allowed to grow until a small tumor was detected in all mice (<1 mm^3). At that time mice were divided into three groups of four mice each. […] All mice received the same amount of diluent/day (20 μl ). The study was assessed following 15 days of treatment.

MDR-positive cells = conditions: cited from earlier work; for multidrug resistance reversal / chemosensitizing activity: in vitro
[2] = tested on: estrogen receptors (ER's); conditions: cited from earlier work
[3] = cited from earlier work; for concentration: following large oral doses, read-out: plasma concentration
MDR MDA A-1 tumors = assay: Doxorubicin cytotoxicity enhancement in MDR tumors; clonogenic assay of tumors excised from treated mice; assay type: in vivo, mouse; conditions: for percent inhibition (clonogenic assay): all three tumors, doxorubicin 1 μg/ml 1 hour, 14 days
Description: Drug was applied dropwise to the skin surface directly and around the tumor. Each drop was allowed to evaporate completely. This treatment was administered once a day at the same time for a total of five days. […] Tumors were collected sterilely and processed for clonogenic assay.
The remaining portion was cloned following a 1 hour exposure to doxorubicin 1 μg/ml.

[4] = tested on: estrogen receptor (ER) positive metastatic breast cancer; conditions: cited from earlier work
[5] = Tissue distribution of toremifene after single dose (500 μg) IP vs. topical; assay type: in vivo; conditions: mouse, 0.5 mg
Description: Single dose toremifene was administered by IP as described above, or topically with DMSO/ETOH/methylcellulose/water as the diluents. […] Tissue samples were collected as above.
All blood samples were centrifuged at 1,000 g. […] Samples were collected and dried as described below. […] The brain samples required filtration with disposable syringe filters.
DMSO and methylcellulose were used as the diluents. […] This was trend noted in both serum and uterus.

[6] = tested on: spontaneous non-Hodgkin's lymphoma; assay: Treatment of spontaneous non-Hodgkin's lymphoma in a baboon; assay type: in vivo
Description: Enlarged lymph nodes with diameters of 1-2 cm were evident in the both groins. Toremifene was dissolved in a. mixture of dimethylsulfoxide, ethanol and methylcellulose. […] On day 25 following start of treatment, topical therapy of right groin was re-instituted while continuing the oral treatment. […] The response to therapy was determined by measuring the sizes of the tumors on two perpendicular dimensions.

[7] = Plasma and tissue concentration of toremifene after topical administration in Monodelphis domestica; assay type: in vivo
Description: The dose was 0.5 mg/d in 3 and 1 mg/d in 3 animals.

TD 36 = assay: Cytostatic effect in melanoma cell line TD 36; assay type: cell-based; conditions: human cell line TD 36; read-out: IC-50 (50% growth inhibitory concentration)
TD 30 A = assay: Cytostatic effect in melanoma cell line TD 30 A; assay type: cell-based; conditions: human cell line TD 30 A; read-out: IC-50 (50% growth inhibitory concentration)
SD-MEL-31 = assay: Cytostatic effect in metastatic melanoma cell line SD-MEL-31 (text: SK-MEL-31); assay type: cell-based; conditions: human cell line SD-MEL-31; read-out: IC-50 (50% growth inhibitory concentration)
Excerpt: (§1) The metastatic melanoma cell line, SK-MEL-31, was obtained from the American Type Culture Collection (Rockville, Md.). Two additional human cell lines were derived from portions of surgigally-excised large diameter, superficial spreading melanomas. TD 1.4 was developed from a benign melanoma, whereas TD 7.2 and TD 8 were derived from melanocytic hyperplasias.

TD 8 = assay: Cytostatic effect in experimental cell line TD 8; assay type: cell-based; conditions: Monodelphis domestica, read-out: IC-50 (50% growth inhibitory concentration)
Excerpt: as §1

TD 1.4 = assay: Cytostatic effect in experimental cell line TD 1.4; assay type: cell-based; conditions: Monodelphis domestica, read-out: IC-50 (50% growth inhibitory concentration)
Excerpt: as §1

TD 7.2 = assay: Cytostatic effect in experimental cell line TD 7.2; assay type: cell-based; conditions: Monodelphis domestica, read-out: IC-50 (50% growth inhibitory concentration)
Excerpt: as §1

[8] = tested on: six cell lines of melanocyte origin; assay: Cytostatic effect in all six cell lines of melanocyte origin; assay type: cell-based, human and Monodelphis domestica
Excerpt: as §1

[9] = brain, topical or ocular, 2.5 mg/day
[10] = liver, topical or ocular, 2.5 mg
[11] = serum, topical or ocular, 2.5 mg
[12] = tumor, topical or ocular, 2.5 mg
[13] = uterus, topical or ocular, 2.5 mg
[14] = oral 1 g on days 15, 17, 19 and 23
[15] = right inguinal lymphoma, topical re-instituted while continuing oral

CN(C)CCOc1ccc(/C(=C(/CCCl)c2ccccc2)c2ccc(O)cc2)cc1 [4-hydroxytoremifene, 4-chloro-1-(4-hydroxyphenyl)-2-phenyl-1-[4-[2-(N, N-dimethylamino)ethoyoxy]phenyl]-1-butene]
Topical/IP brain concentration ratio ([1]; brain, topical 2.5 mg/day vs IP 1 mg/day, 5 days, listed as Trans 4-hydroxytoremifene): 1.00 | Topical/IP brain concentration ratio ([1]; brain, topical 2.5 mg/day vs IP 1 mg/day, 5 days, listed as trans 4-hydroxytoremifene): identical | Topical/IP liver concentration ratio ([1]; liver, topical 2.5 mg/day vs IP 1 mg/day, 5 days): 1.63 | concentration at 2 h ([1]; brain, ip, 1 mg/day): 350 ng/g | concentration at 2 h [1, 9]: 350 ng/g | concentration at 2 h ([1]; liver, ip, 1 mg): 600 ng/g | concentration at 2 h [1, 10]: 980 ng/g | concentration at 2 h ([1]; serum, ip, 1 mg): 160 ng/mL | concentration at 2 h [1, 11]: 100 ng/mL | concentration at 2 h ([1]; tumor, ip, 1 mg): 880 ng/g | concentration at 2 h [1, 12]: 2330 ng/g | concentration at 2 h ([1]; uterus, ip, 1 mg): 830 ng/g | concentration at 2 h [1, 13]: 700 ng/g | Topical/IP serum concentration ratio ([1]; serum, topical 2.5 mg/day vs IP 1 mg/day, 5 days, listed as Trans 4-hydroxytoremifene): 0.63 | Topical/IP serum concentration ratio ([1]; serum, topical 2.5 mg/day vs IP 1 mg/day, 5 days, listed as trans 4-hydroxytoremifene): lower | Topical/IP tumor concentration ratio ([1]; tumor, topical 2.5 mg/day vs IP 1 mg/day, 5 days, listed as Trans 4-hydroxytoremifene): 2.65 | Topical/IP tumor concentration ratio ([1]; tumor, topical 2.5 mg/day vs IP 1 mg/day, 5 days, listed as trans 4-hydroxytoremifene): greater concentrations | Topical/IP uterus concentration ratio ([1]; uterus, topical 2.5 mg/day vs IP 1 mg/day, 5 days): 0.84 | effect on tumor growth (MCF-7 cells): prevented tumor growth | mice that developed a tumor (MCF-7 cells; four mice per group, all four control mice had tumors >6×8 mms): only one mouse | multidrug resistance reversal / chemosensitizing activity (MDR-positive cells): have chemosensitizing activity in MDR-positive cells | antiestrogenic potency among metabolites [2]: most potent antiestrogenic metabolite

CNCCOc1ccc(C(=C(CCCl)c2ccccc2)c2ccccc2)cc1 [N-demethyltoremifene, 4-chloro-1,2-diphenyl-[4-[2-(N-methylamino)ethoxy-]phenyl]-1-butene]
concentration at 2 h ([1]; brain, ip, 1 mg/day): 490 ng/g | concentration at 2 h [1, 9]: 290 ng/g | concentration at 2 h ([1]; liver, ip, 1 mg): 940 ng/g | concentration at 2 h [1, 10]: 920 ng/g | concentration at 2 h ([1]; serum, ip, 1 mg): 180 ng/mL | concentration at 2 h [1, 11]: 80 ng/mL | concentration at 2 h ([1]; tumor, ip, 1 mg): 1270 ng/g | concentration at 2 h [1, 12]: 8430 ng/g | concentration at 2 h ([1]; uterus, ip, 1 mg): 1180 ng/g | concentration at 2 h [1, 13]: 560 ng/g | multidrug resistance reversal / chemosensitizing activity (MDR-positive cells): have chemosensitizing activity in MDR-positive cells | concentration [3]: ~10 µM

COc1cccc2c1C(=O)c1c(O)c3c(c(O)c1C2=O)C[C@@](O)(C(=O)CO)C[C@@H]3O[C@H]1C[C@H](N)[C@H](O)[C@H](C)O1 [doxorubicin]
sensitivity of tumor to doxorubicin without toremifene (MDR MDA A-1 tumors; mouse not treated with toremifene (FIG. 2)): resistant

CC/C(=C(\c1ccccc1)c1ccc(OCCN(C)C)cc1)c1ccccc1 [tamoxifen]
fraction of patients with temporary remission ([4]; ER positive metastatic breast cancer): About two-thirds | endometrial toxicity ([4]; adjuvant therapy, women): increased risk of developing endometrial neoplasms; also recorded: endometrial dysplasia, bleeding, polyp formation and tumors | estrogen receptor antagonism ([2]; inhibition of estrogen-induced growth): competitive antagonism of tumor estrogen receptors

CN(C)CCOc1ccc(/C(=C(/CCCl)c2ccccc2)c2ccccc2)cc1 [toremifene]
concentration at 2 h ([5]; serum, ip, Serum toremifene concentration): 90 ng/mL | concentration at 2 h ([5]; serum, topical or ocular, Serum toremifene concentration, topical in DMSO): 30 ng/mL | concentration at 2 h ([5]; serum, topical or ocular, Serum toremifene concentration, topical in methylcellulose (MC)): 20 ng/mL | concentration at 2 h ([5]; tumor, ip, Tumor toremifene concentration): 2570 ng/g | concentration at 2 h ([5]; tumor, topical or ocular, Tumor toremifene concentration, topical in DMSO): 4650 ng/g | concentration at 2 h ([5]; tumor, topical or ocular, Tumor toremifene concentration, topical in methylcellulose (MC)): 1800 ng/g | concentration at 2 h ([5]; uterus, ip, Uterus toremifene concentration): 23600 ng/g | concentration at 2 h ([5]; uterus, topical or ocular, Uterus toremifene concentration, topical in DMSO): 920 ng/g | concentration at 2 h ([5]; uterus, topical or ocular, Uterus toremifene concentration, topical in methylcellulose (MC)): 1100 ng/g | effect on tumor growth (MCF-7 cells): prevented tumor growth | percent inhibition (clonogenic assay) (MDR MDA A-1 tumors; intraperitoneal toremifene): < 30% | percent inhibition (clonogenic assay) (MDR MDA A-1 tumors; topical toremifene): > 30% | sensitization of tumors to doxorubicin (MDR MDA A-1 tumors; topical toremifene, cloning studies (FIG. 2)): appears to sensitize these MDR MDA A-1 tumors to doxorubicin | left inguinal lymphoma during oral therapy [6, 14]: stabilized | right inguinal lymphoma during oral therapy [6, 14]: begun to regrow | response of lymphoma to topical toremifene ([6]; right inguinal lymphoma, 1.4 g topical over 8 days): clear response | tumor area after reinstituted topical therapy [6, 15]: 24 mm^2 | tumor area before reinstituted topical therapy [6, 15]: 476 mm^2 | in vivo antitumor response ([6]; topical, regional T-cell lymphoma): can produce an in vivo antitumor response | mean concentration of toremifene in brain ([7]; topical 0.5 mg/day for 5 days): 0.82 ± 0.99 nmol/g | mean concentration of toremifene in skin ([7]; topical 0.5 mg/day for 5 days): 1296.40 ± 1003.93 nmol/g | mean concentration of toremifene in brain ([7]; topical 1 mg/day for 5 days): 0.82 ± 0.62 nmol/g | mean concentration of toremifene in skin ([7]; topical 1 mg/day for 5 days): 1237.35 ± 768.90 nmol/g | Toremifene concentration in skin as compared to other tissues ([7]; topical 0.5 and 1 mg/day for 5 days): more than 500 fold | IC50 (TD 36): 5.8 µM | IC50 (TD 30 A): 7.7 µM | IC50 (SD-MEL-31): 8.1 µM | IC50 (TD 8): 7.7 µM | IC50 (TD 1.4): 9.3 µM | IC50 (TD 7.2): 9.6 µM | IC50 ([8]; Melanocyte, all six cell lines, read-out: range of IC-50s): 5.8 to 9.6 µM | cytostatic effect ([8]; human and experimental melanomatous cell lines in vitro): clear cytostatic effect | concentration that reverses resistance in vitro (MDR-positive cells; achievable in vivo following oral therapy): 5 µM | multidrug resistance reversal / chemosensitizing activity (MDR-positive cells): have chemosensitizing activity in MDR-positive cells | concentration [3]: ~10 µM | systemic toxicity ([3]; high-dose toremifene (400 mg/day)): generally confined to vertigo, nausea and hot flashes

COc1ccc(CCN(C)CCCC(C#N)(c2ccc(OC)c(OC)c2)C(C)C)cc1OC (stereo not drawn) [verapamil]
multidrug resistance reversal / chemosensitizing activity (MDR-positive cells): shown to reverse multidrug resistance in vitro
